Earlier results in US20130317107A1, “Platelet-Based Methods to Detect and Monitor Treatment Benefits in Mucosal and Nervous Systems Diseases” (priority 2012, published 2013).

Key:
[1] = system: human bronchial epithelial cells
[2] = system: dogs; details: administered intravenously in dogs
[3] = relative to cysteine
[4] = system: p38 MAP kinase; details: human bronchial epithelial cells
[5] = relative to the stable cysteine disulfide
[6] = system: interluekin-1 beta (IL-1β)-induced eotaxin and monocyte chemotactic protein-1 (MCP-1) expression; details: by inhibiting activation of p38 MAP kinase
[7] = system: collagen-stimulated platelets

Row | Compound | DEP-induced IL-8 and RANTES production [1] | protection against pulmonary oxygen toxicity and ischemic and reperfusion damage [2] | stability compared with cysteine [3] | DEP-induced p38 MAP kinase activity [4] | solubility compared with cystine [5] | IL-1β-induced eotaxin and MCP-1 expression and production [6] | CD40L release [7]
1 | CC(=O)N[C@@H](CS)C(=O)O [N-acetylcysteine] | inhibited | protect | about 10 times | inhibit | much more soluble | inhibit | –
2 | CC(=O)Oc1ccccc1C(=O)O [Aspirin] | – | – | – | – | – | – | only partially inhibit
